Assays:
[1] = test system: C4-2 human carcinoma xenografts; patient derived xenograft (PDX) TM00298 prostate tumors; assay: Repeat dose and enzalutamide combination efficacy in prostate tumor models; assay type: in vivo, mice; settings: enzalutamide as a single agent; prostate cancer cells
Protocol: Anti-tumor efficacy of the anti-PSMA ADCs of the invention in combination with hormone therapy enzalutamide was tested in tumor xenograft model in mice engrafted with prostate cancer cell line. Metastatic castration resistant prostate cancer (mCRPC) relevant cell line, C4-2, was obtained from ATCC and expanded in vitro following ATCC instructions. C4-2 human carcinoma xenografts were grown in male immune-compromised mice with cells implanted subcutaneously. A second model using male immunocompromised mice bearing patient derived xenograft (PDX) TM00298 (Jackson Laboratories, CA) prostate tumors was also studied.
Mice were weighed and measured for tumor volume using an electronic caliper. Individual tumor volume was calculated as length×width×width/2. Mice with vascularized tumors (determined by appearance) averaging a volume of 500 mm^3 were randomized into treatment groups and were dosed intravenously per individual body weight. Anti-PSMA ADCs were administered intravenously at 0.5, 1, and 3 mg/kg weekly for 4 weeks in the C4-2 model and at 1 and 3 mg/kg weekly for 4 weeks in the PDX model. In both prostate models, enzalutamide was administered orally daily at 10 mg/kg, for 28 days. In both prostate models, one group of mice were administered a combination therapy of 1 mg/kg anti-PSMA ADC plus 10 mg/kg enzalutamide, FIGS. 7 and 8. […]

[2] = test system: cell surface PSMA expression; settings: in vitro; Murga et al. 2015; cited from earlier work

CNC(=O)c1ccc(N2C(=S)N(c3ccc(C#N)c(C(F)(F)F)c3)C(=O)C2(C)C)cc1F [enzalutamide]
level of cell surface PSMA [1]: increased the level of cell surface PSMA in prostate cancer cells
increase of cell surface PSMA expression [2]: approximately 3 fold
